# From PMC9274761, “Effects of Structurally Different HDAC Inhibitors against Trypanosoma cruzi, Leishmania, and Schistosoma mansoni” (ACS Infectious Diseases, 2022)
# Several values for one entry are separate records, joined by “and”; a condition that tells them apart may be missing. Equal entries are not always repeated.
# Assays:
# [1] = tested on: L. donovani axenic amastigotes; experiment: Resazurin reduction assay, L. donovani axenic amastigotes; format: cell-based; conditions: Leishmania donovani, read-out: percentage of inhibition, L. donovani axenic amastigotes
# HDAC9 = HDAC9 (Homo sapiens, UniProt Q9UKV0); experiment: HDAC9 protease-coupled fluorescence (AMC) inhibition assay; format: biochemical; conditions: hr enzyme, class IIa substrate; read-out: IC50 against HDAC9
# Chain of HDAC9 (Q9UKV0 whole entry): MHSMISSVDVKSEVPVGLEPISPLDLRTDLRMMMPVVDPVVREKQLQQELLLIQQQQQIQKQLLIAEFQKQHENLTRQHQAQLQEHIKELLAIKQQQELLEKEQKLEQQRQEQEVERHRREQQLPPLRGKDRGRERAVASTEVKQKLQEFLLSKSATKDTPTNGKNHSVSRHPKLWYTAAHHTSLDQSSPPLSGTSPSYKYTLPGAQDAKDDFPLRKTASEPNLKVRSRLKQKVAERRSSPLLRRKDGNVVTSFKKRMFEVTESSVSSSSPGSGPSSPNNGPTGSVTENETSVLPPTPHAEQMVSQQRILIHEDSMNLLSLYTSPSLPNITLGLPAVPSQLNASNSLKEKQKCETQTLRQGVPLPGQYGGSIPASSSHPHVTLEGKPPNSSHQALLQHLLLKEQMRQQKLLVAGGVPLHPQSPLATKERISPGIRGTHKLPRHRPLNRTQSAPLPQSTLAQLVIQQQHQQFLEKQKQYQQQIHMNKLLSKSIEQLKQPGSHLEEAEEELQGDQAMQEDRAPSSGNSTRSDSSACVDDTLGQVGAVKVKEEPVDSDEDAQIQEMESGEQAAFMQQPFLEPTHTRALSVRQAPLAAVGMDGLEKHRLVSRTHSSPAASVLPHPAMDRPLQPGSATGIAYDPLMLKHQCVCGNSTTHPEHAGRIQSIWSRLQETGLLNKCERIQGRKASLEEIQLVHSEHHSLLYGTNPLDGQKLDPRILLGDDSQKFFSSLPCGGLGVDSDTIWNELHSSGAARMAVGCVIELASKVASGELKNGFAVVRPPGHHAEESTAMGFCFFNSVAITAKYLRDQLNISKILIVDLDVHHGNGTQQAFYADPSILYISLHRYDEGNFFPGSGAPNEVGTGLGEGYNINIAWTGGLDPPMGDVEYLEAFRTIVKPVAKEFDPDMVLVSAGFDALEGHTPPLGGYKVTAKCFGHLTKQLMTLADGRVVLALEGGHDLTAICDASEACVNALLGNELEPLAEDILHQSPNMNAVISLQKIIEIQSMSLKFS
# Procedure: (§1) The new hydroxamates 2 and 6 were screened and profiled via a protease-coupled assay in which the quantification of HDAC enzyme activity is based on the formation of a free fluorescent group, the 7-amino-4-methyl coumarin (AMC).[42] […] After deacetylation by HDACs, the de(trifluoro)acetylated AMC–peptides were sensitive toward lysine peptidase and free fluorogenic AMC was generated and quantified.[42]
# (§2) Individual IC50 values for each HDAC isozyme were measured with the homogeneous fluorescence release HDAC assay.[42]
# HDAC8 = molecular target: T1, HDAC8 (Homo sapiens, UniProt Q9BY41); experiment: HDAC8 protease-coupled fluorescence (AMC) inhibition assay; format: biochemical; conditions: hr enzyme, substrate RHK(Ac)K(Ac)AMC; read-out: IC50 against HDAC8
# T1 sequence (Q9BY41 1-377): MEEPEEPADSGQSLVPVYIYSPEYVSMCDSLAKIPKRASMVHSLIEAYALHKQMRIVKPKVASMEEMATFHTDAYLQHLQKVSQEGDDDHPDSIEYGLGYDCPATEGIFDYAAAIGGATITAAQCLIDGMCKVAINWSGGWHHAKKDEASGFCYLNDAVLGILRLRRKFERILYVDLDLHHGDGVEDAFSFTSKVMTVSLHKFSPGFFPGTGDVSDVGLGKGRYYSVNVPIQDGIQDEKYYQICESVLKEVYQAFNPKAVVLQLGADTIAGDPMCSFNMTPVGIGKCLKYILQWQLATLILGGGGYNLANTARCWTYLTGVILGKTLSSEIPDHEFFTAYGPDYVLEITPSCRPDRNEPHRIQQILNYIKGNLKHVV
# From the text: as §1
# (§3) To gain insights into its inhibition profile for human HDACs, we tested 3 against hrHDACs 1–6 and 8 following the above procedure (Table 1).
# as §2
# in vitro = conditions: mouse, noninfected L929 fibroblast cells
# HDAC2 = HDAC2 (Homo sapiens, UniProt Q92769); experiment: HDAC2 protease-coupled fluorescence (AMC) inhibition assay; format: biochemical; conditions: hr enzyme, 10-dose, 3-fold dilution from 50 μM (3: from 300 μM); read-out: IC50 against HDAC2
# Chain of HDAC2 (Q92769 whole entry): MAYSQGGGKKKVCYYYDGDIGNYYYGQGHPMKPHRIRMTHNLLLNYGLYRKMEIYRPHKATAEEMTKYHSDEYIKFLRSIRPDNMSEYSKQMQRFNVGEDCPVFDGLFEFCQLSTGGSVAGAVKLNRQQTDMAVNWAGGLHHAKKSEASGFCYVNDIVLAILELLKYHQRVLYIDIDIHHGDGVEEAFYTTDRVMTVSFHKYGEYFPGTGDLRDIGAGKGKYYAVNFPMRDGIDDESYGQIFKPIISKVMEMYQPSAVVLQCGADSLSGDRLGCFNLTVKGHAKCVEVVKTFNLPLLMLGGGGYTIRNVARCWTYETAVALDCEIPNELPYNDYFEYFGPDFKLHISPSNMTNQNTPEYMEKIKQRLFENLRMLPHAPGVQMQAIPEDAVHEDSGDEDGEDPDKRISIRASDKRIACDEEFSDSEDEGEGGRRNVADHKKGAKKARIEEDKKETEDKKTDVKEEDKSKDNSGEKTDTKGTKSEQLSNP
# From the text: as §1, §3, §2
# [2] = tested on: newly transformed schistosomula (NTS); experiment: Phenotypic screening on newly transformed schistosomula (NTS); format: cell-based, Schistosoma mansoni; conditions: for IC50: Schistosoma mansoni, 72 h, read-out: IC50, viability of NTS
# HDAC5 = HDAC5 (Homo sapiens, UniProt Q9UQL6); experiment: HDAC5 protease-coupled fluorescence (AMC) inhibition assay; format: biochemical; conditions: for IC50: hr enzyme, class IIa substrate Boc-Lys(trifluoroacetyl)-AMC, read-out: IC50 against HDAC5
# Chain of HDAC5 (Q9UQL6 whole entry): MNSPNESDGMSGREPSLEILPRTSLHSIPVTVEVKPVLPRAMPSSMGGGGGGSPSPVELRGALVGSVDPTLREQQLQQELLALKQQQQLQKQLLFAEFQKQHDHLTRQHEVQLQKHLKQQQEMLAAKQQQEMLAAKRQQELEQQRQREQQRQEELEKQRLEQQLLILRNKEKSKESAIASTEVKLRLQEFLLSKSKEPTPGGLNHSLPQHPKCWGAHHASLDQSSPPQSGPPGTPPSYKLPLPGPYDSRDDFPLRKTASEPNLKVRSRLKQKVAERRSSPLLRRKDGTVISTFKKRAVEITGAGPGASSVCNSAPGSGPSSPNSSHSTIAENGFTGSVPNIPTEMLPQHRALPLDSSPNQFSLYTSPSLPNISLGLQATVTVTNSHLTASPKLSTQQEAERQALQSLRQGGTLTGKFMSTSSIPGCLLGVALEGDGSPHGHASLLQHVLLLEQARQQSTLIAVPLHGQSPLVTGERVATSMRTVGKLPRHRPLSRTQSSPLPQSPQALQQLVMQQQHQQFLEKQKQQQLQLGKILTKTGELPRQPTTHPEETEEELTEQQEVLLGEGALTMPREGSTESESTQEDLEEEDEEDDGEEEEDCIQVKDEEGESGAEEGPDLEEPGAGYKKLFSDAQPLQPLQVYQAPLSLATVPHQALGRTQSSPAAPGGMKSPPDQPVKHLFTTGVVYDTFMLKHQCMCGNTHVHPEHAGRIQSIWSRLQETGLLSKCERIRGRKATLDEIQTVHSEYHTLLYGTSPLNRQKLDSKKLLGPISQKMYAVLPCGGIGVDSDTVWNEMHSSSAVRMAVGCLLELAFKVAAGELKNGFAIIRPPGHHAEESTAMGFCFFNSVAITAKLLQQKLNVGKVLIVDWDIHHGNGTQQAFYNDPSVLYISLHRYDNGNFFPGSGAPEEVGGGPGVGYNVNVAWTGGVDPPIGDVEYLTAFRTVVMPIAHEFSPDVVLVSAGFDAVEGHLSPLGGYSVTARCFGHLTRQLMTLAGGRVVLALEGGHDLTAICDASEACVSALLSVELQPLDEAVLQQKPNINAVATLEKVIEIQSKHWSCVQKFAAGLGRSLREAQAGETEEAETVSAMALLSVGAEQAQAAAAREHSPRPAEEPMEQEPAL
# From the text: as §1, §3, §2
# [3] = tested on: L. donovani promastigotes; experiment: Resazurin reduction assay, L. donovani promastigotes; format: cell-based; conditions: Leishmania donovani, read-out: percentage of inhibition, L. donovani promastigotes
# HDAC10 = HDAC10 (Homo sapiens, UniProt Q969S8); experiment: HDAC10 protease-coupled fluorescence (AMC) inhibition assay; format: biochemical; conditions: hr enzyme; read-out: IC50 against HDAC10
# Procedure: as §1, §2
# HDAC7 = HDAC7 (Homo sapiens, UniProt Q8WUI4); experiment: HDAC7 protease-coupled fluorescence (AMC) inhibition assay; format: biochemical; conditions: hr enzyme, class IIa substrate; read-out: IC50 against HDAC7
# Chain of HDAC7 (Q8WUI4 whole entry): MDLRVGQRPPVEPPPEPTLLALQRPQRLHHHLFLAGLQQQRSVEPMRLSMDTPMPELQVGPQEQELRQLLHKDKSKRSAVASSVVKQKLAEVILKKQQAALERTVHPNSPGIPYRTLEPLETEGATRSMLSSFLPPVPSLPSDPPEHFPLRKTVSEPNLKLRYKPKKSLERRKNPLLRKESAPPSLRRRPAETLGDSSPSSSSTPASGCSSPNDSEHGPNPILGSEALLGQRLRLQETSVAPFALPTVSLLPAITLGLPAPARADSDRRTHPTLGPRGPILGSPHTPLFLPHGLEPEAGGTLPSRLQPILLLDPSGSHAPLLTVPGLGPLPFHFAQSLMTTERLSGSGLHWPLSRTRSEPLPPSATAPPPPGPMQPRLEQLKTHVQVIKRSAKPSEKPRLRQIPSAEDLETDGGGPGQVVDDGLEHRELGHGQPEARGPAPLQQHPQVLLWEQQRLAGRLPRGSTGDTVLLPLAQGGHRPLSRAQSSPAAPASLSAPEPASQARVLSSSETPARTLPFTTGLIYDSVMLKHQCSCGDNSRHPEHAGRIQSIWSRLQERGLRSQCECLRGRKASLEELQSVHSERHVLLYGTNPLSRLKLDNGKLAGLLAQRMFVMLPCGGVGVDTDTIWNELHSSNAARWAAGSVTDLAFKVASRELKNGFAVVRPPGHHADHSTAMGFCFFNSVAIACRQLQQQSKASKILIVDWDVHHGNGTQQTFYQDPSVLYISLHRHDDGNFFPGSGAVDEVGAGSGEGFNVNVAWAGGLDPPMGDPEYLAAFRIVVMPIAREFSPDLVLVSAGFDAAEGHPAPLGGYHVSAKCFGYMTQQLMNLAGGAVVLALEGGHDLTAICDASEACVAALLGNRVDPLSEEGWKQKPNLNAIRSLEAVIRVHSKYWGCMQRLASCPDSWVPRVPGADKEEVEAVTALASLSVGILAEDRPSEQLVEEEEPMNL
# Procedure: as §1, §2
# HDAC4 = HDAC4 (Homo sapiens, UniProt P56524); experiment: HDAC4 protease-coupled fluorescence (AMC) inhibition assay; format: biochemical; conditions: hr enzyme, class IIa substrate Boc-Lys(trifluoroacetyl)-AMC; read-out: IC50 against HDAC4
# Chain of HDAC4 (P56524 whole entry): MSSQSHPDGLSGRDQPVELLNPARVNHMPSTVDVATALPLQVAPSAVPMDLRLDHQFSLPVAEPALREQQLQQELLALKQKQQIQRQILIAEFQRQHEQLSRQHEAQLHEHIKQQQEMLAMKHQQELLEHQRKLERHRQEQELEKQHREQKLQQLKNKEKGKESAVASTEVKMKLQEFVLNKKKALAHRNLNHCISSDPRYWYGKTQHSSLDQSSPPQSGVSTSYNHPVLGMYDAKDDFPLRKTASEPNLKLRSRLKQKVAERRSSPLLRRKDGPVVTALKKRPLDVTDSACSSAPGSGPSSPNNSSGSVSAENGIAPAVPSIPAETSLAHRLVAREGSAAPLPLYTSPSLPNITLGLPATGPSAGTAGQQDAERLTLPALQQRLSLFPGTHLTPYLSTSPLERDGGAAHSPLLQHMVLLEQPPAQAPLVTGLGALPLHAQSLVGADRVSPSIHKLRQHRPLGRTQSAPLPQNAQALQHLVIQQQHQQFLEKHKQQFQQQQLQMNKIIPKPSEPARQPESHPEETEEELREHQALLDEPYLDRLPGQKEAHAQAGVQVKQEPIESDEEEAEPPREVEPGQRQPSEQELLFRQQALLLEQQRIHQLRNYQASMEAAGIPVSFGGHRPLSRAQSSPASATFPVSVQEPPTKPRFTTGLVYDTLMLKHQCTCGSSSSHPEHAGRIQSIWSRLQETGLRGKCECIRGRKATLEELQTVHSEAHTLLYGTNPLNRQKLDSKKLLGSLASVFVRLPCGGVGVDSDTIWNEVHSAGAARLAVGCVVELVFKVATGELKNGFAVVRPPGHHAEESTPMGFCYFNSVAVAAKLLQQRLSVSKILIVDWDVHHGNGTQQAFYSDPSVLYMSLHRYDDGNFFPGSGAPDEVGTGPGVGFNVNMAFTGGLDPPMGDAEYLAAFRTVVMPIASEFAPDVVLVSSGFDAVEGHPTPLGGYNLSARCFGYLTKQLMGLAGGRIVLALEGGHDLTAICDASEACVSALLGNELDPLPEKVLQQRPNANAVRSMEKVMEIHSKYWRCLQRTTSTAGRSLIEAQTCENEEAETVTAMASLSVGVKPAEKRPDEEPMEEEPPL
# From the text: as §1, §3, §2
# [4] = tested on: T. cruzi amastigotes and trypomastigotes; experiment: T. cruzi infection assay in L929 cells (beta-galactosidase Tulahuen strain); format: cell-based, Trypanosoma cruzi; conditions: infected L929 cells, 96 h; for EC50, growth of T. cruzi amastigotes and trypomastigotes: mean ± SD
# [5] = tested on: L. amazonensis amastigotes in primary mouse macrophages; conditions: 10 μM, 3 days, toxic = toxic for macrophages
# HDAC11 = HDAC11 (Homo sapiens, UniProt Q96DB2); experiment: HDAC11 protease-coupled fluorescence (AMC) inhibition assay; format: biochemical; conditions: hr enzyme; read-out: IC50 against HDAC11
# Chain of HDAC11 (Q96DB2 whole entry): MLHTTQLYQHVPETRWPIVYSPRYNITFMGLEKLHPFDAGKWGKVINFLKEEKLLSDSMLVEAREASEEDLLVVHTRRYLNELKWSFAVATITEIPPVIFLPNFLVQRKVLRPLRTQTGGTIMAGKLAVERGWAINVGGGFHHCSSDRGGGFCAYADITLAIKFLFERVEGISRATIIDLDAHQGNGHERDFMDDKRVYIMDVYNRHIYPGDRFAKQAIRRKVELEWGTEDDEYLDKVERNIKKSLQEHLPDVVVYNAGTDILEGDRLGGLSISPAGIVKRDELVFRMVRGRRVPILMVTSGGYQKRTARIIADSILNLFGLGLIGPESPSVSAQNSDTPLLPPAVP
# Procedure: as §1, §2
# [6] = tested on: L. amazonensis promastigotes; experiment: Resazurin reduction assay, L. amazonensis promastigotes; format: cell-based; conditions: Leishmania amazonensis, read-out: percentage of inhibition, L. amazonensis promastigotes
# [7] = Trypanosoma cruzi, read-out: percentage of T. cruzi growth inhibition
# [8] = Trypanosoma cruzi, toxic = L929 death, read-out: percentage of T. cruzi growth inhibition
Compound,inhibition at 0.8 µM [1],inhibition at 4 µM [1],inhibition at 20 µM [1],IC50 (HDAC9),IC50 (HDAC8),CC50 at 96 h (in vitro),IC50 (HDAC2),"percentage of NTS activity, 72 h ([2]; 10 μM)","percentage of NTS activity, 72 h ([2]; 20 μM)",IC50 [2],IC50 (HDAC5),inhibition at 0.8 µM [3],inhibition at 4 µM [3],inhibition at 20 µM [3],IC50 (HDAC10),IC50 (HDAC7),IC50 (HDAC4),"percentage of T. cruzi growth inhibition ([4]; 40 μM, toxic = L929 death)","percentage of T. cruzi growth inhibition ([4]; 80 μM, toxic = L929 death)","percentage of T. cruzi growth inhibition ([4]; 160 μM, toxic = L929 death)",also measured
"O=C(/C=C/c1ccc(CSc2nc(Cl)cc(-c3ccccc3)n2)cc1)NO [Compound 2, 3-(4-(((4-Chloro-6-phenylpyrimidin-2-yl)thio)methyl)phenyl)-N-hydroxy Acrylamide]",16.4 ± 18.6%,7.8 ± 1.1%,60.2 ± 1.4%,> 50 µM,2.22 µM,20 µM,4.11 µM,39.7 ± 0.9%,70% and 67.31 ± 2.9%,12.9 µM,22.9 µM,1.1 ± 2%,2.5 ± 1.4%,74.8 ± 2.5%,2.8 µM,> 50 µM,17.3 µM,toxic,toxic,toxic,"inhibition at 1.25 µM [4, 7]: 0%; inhibition at 2.5 µM [4, 8]: 0%; inhibition at 5 µM [4, 8]: 0%; inhibition at 10 µM ([4]; Trypanosoma cruzi, 10 μM, toxic = L929 death, read-out: percentage of T. cruzi growth inhibition): 0%; inhibition at 20 µM ([4]; Trypanosoma cruzi, 20 μM, toxic = L929 death, read-out: percentage of T. cruzi growth inhibition): 3%; EC50, growth of T. cruzi amastigotes and trypomastigotes [4]: inactive; HCA outcome against intramacrophagic L. amazonensis amastigotes [5]: toxic; IC50 (HDAC11): 2.31 µM; inhibition at 4 µM [6]: 11.3 ± 1.7%; inhibition at 20 µM [6]: 83.3 ± 1.8%"
"CN(C)Cc1ccc(S(=O)(=O)n2ccc3cc(/C=C/C(=O)NO)ccc32)cc1 [Compound 6, 3-(1-((4-((Dimethylamino)methyl)phenyl)sulfonyl)-1H-indol-5-yl)-N-hydroxy Acrylamide]",39.9 ± 2.1%,0.1 ± 0.8%,39.6 ± 5.5%,31.1 µM,1.87 µM,5 µM,3.49 µM,20.9 ± 0.9%,22.8 ± 1.0%,> 20 µM,3.43 µM,7.9 ± 7.5%,6.9 ± 8.7%,8.6 ± 1.3%,2.87 µM,> 50 µM,16.7 µM,toxic,toxic,toxic,"fold more potent against HDAC5 than against HDAC4 (HDAC5; ratio of IC50 HDAC4 / HDAC5): 5 fold; percentage of T. cruzi growth inhibition ([4]; 10 μM, toxic = L929 death): toxic; percentage of T. cruzi growth inhibition ([4]; 20 μM, toxic = L929 death): toxic; inhibition at 1.25 µM [4, 7]: 0%; inhibition at 2.5 µM [4, 8]: 0%; inhibition at 5 µM [4, 8]: 3%; EC50, growth of T. cruzi amastigotes and trypomastigotes [4]: inactive; HCA outcome against intramacrophagic L. amazonensis amastigotes [5]: toxic; IC50 (HDAC11): 4.87 µM; inhibition at 4 µM [6]: 9.2 ± 3.4%; inhibition at 20 µM [6]: 60.1 ± 1.7%"
